Source: patent publication US10981932B2, “Macrocyclic indole derivatives” (Bayer Aktiengesellschaft, priority 2016, dated 2021)
Where two headings read alike, the source gives them in different places.

What was measured:
SUDHL5 [1] = assay: Induction of cytotoxicity (CellTiter-Glo, 5 h), SUDHL5
MCL-1 = MCL-1 (Homo sapiens, UniProt Q07820); assay: Protein-protein interaction assay MCL-1/Noxa BH3 peptide (MCL-1 assay), TR-FRET; format: binding; settings: MBP-MCL-1 / Noxa BH3-derived peptide, median
Summary of the method: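 IC50 came from a 4-parameter fit of the normalized 665/620 nm TR-FRET ratio (anti-MBP Eu-cryptate/streptavidin-XL665). Compounds (0.1 nM–20 μM, duplicates) were preincubated 10 min at 22 °C with 1 nM MBP-MCL-1 in pH 7 Tris/NaCl/KF buffer, then read after 1 h at 22 °C plus overnight at 4 °C.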

SUDHL10 [2] = assay: Induction of caspase-3/7 activity (Caspase-Glo 3/7), SUDHL10; format: cell-based; settings: caspase-3/7 induction, SUDHL10 cells, 3 h treatment, median
Summary of the method: (§1)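 DLBCL lines SUDHL5 and SUDHL10 treated with compounds for 3 h at 37 °C; caspase-3/7 activity read by Caspase-Glo 3/7 luminescence. Medium-only background subtracted; EC50 fitted with bottom fixed at 1 and top fixed at the reference compound's maximal induction.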

OPM2 = assay: Anti-proliferative effect (CellTiter-Glo, 72 h), OPM2; format: cell-based; settings: OPM2 cells, median, read-out: IC50 antiproliferation assay OPM2 [M] (median)
Summary of the method: (§2)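 Cells plated and incubated with compounds for 72 h at 37 °C, with a parallel day 0 reference plate for time-zero signal. Viability read by CellTiter-Glo luminescence after 10 min, measured identically on the day 0 and 72 h plates.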

SUDHL5 [3] = assay: Induction of caspase-3/7 activity (Caspase-Glo 3/7), SUDHL5; format: cell-based; settings: caspase-3/7 induction, SUDHL5 cells, 3 h treatment, median
Summary of the method: as §1

SUDHL5 [4] = assay: Anti-proliferative effect (CellTiter-Glo, 72 h), SUDHL5; format: cell-based; settings: SUDHL5 cells, antiproliferation, 72 h incubation, median, read-out: Antiproli SUDHL5 [M] (median)
Summary of the method: as §2

A2780 = assay: Anti-proliferative effect (CellTiter-Glo, 72 h), A2780; format: cell-based; settings: A2780 cells, median, read-out: IC50 antiproliferation assay A2780 [M] (median)
Summary of the method: as §2

SUDHL10 [5] = assay: Anti-proliferative effect (CellTiter-Glo, 72 h), SUDHL10; format: cell-based; settings: SUDHL10 cells, antiproliferation, 72 h incubation, median, read-out: Antiproli SUDHL10 [M] (median)
Summary of the method: as §2

SUDHL10 [6] = assay: Induction of cytotoxicity (CellTiter-Glo, 5 h), SUDHL10
[7] = read-out: Cytotox SUDHL5 [M] (median), SUDHL5 cells, cytotoxicity induction, CellTiter-Glo, 5 h incubation, median
[8] = read-out: Cytotox SUDHL10 [M] (median), SUDHL10 cells, cytotoxicity induction, CellTiter-Glo, 5 h incubation, median
[9] = Homo sapiens, SU-DHL-5, 5 h, read-out: Cytotox SUDHL5 [M] (median), SUDHL5 cells, cytotoxicity induction, CellTiter-Glo, 5 h incubation, median
[10] = Homo sapiens, SU-DHL10, 5 h, read-out: Cytotox SUDHL10 [M] (median), SUDHL10 cells, cytotoxicity induction, CellTiter-Glo, 5 h incubation, median

MCL-1, sequence (Q07820 whole entry): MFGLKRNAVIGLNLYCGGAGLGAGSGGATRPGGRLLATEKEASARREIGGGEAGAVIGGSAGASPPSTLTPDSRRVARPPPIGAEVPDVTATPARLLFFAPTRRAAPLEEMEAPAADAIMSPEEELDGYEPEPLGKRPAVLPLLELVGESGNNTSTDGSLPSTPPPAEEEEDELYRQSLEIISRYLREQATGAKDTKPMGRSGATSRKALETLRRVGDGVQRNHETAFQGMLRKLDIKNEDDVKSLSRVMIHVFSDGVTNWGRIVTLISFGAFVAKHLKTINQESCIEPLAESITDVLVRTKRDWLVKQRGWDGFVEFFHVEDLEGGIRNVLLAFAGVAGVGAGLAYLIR

Row | Structure (SMILES) | IC50 (SUDHL5 [1]; [7]) | IC50 (MCL-1) | EC50 (SUDHL10 [2]) | IC50 (OPM2) | EC50 (SUDHL5 [3]) | IC50 (SUDHL5 [4]) | IC50 (A2780) | IC50 (SUDHL10 [5]) | IC50 (SUDHL10 [6]; [8]) | IC50 (SUDHL5 [1]; [9]) | IC50 (SUDHL10 [6]; [10]) | EC50 (SUDHL10 [2]; Homo sapiens, SU-DHL10, 3 h) | IC50 (OPM2; Homo sapiens, OPM-2, 72 h) | EC50 (SUDHL5 [3]; Homo sapiens, SU-DHL-5, 3 h) | IC50 (SUDHL5 [4]; Homo sapiens, SU-DHL-5, 72 h) | IC50 (SUDHL10 [5]; Homo sapiens, SU-DHL10, 72 h) | IC50 (A2780; Homo sapiens, A2780, 72 h)
1 | CN1CCCn2c(C(=O)O)c(CCCOc3cccc4ccccc34)c3cccc(c32)-c2c(CN3CCOCC3)nn(C)c2C1 (single isomer, unassigned; enantiomer 2) [Example 1-44, (−)-7,9-dimethyl-11-(morpholin-4-ylmethyl)-1-[3-(naphthalen-1-yloxy)propyl]-4,5,6,7,8,9-hexahydropyrazolo[3′,4′:7,8][1,5]diazecino[9,10,1-hi]indole-2-carboxylic Acid (Enantiomer 2)] | 1.26e-05 M | 0.0177 µM | 9.76 µM | 1.13e-05 M | 12.4 µM | 6.96e-06 M | 1.95e-05 M | 7.73e-06 M | – | – | – | – | – | – | – | – | –
2 | Cc1cc(OCCCc2c(C(=O)O)n3c4c(cccc24)-c2c(COc4ccccc4)nn(C)c2CN(C)CCC3)cc(C)c1Cl (single isomer, unassigned) [Example 1-86, 1-[3-(4-chloro-3,5-dimethylphenoxy)propyl]-7,9-dimethyl-1-(phenoxymethyl)-4,5,6,7,8,9-hexahydropyrazolo[3′,4′:7,8][1,5]diazecino[9,10,1-hi]indole-2-carboxylic Acid] | > 3.3e-05 M | 0.278 µM | > 33 µM | 2.43e-05 M | > 33 µM | 1.96e-05 M | – | 9.45e-06 M | > 3.3e-05 M | – | – | – | – | – | – | – | –
3 | CN1CCCn2c(C(=O)O)c(CCCOc3cccc4ccccc34)c3cccc(c32)-c2c(COc3ccccc3)nn(C)c2C1 (single isomer, unassigned) [Example 1-82, 7,9-dimethyl-1-[3-(naphthalen-1-yloxy)propyl]-11-(phenoxymethyl)-4,5,6,7,8,9-hexahydropyrazolo[3′,4′:7,8][1,5]diazecino[9,10,1-hi]indole-2-carboxylic Acid] | – | 0.113 µM | – | – | – | – | – | – | – | > 3.3e-05 M | > 3.3e-05 M | > 33 µM | > 3.3e-05 M | > 33 µM | 2.77e-05 M | 1.42e-05 M | –
4 | CN1CCCn2c(C(=O)O)c(CCCOc3cccc4ccccc34)c3cccc(c32)-c2c(COc3ccccc3)nn(C)c2C1 (single isomer, unassigned) [Example 1-83, 7,9-dimethyl-1-[3-(naphthalen-1-yloxy)propyl]-11-(phenoxymethyl)-4,5,6,7,8,9-hexahydropyrazolo[3′,4′:7,8][1,5]diazecino[9,10,1-hi]indole-2-carboxylic Acid] | > 3.3e-05 M | 0.24 µM | > 33 µM | > 3.3e-05 M | > 33 µM | 2.06e-05 M | – | 1.12e-05 M | > 3.3e-05 M | – | – | – | – | – | – | – | –
5 | Cc1nn(C)c2c1-c1cccc3c(CCCOc4cccc5ccccc45)c(C(=O)O)n(c13)CCCN(c1ccccc1)C2 (racemic) [Example 1-97, (rac)-9,11-Dimethyl-1-[3-(1-naphthyloxy)propyl]-7-phenyl-4,5,6,7,8,9-hexahydropyrazolo[3′4′:78][1,5]diazecino[9,10,1-hi]indole-2-carboxylic Acid] | – | 0.175 µM | – | – | – | – | – | – | – | > 3e-05 M | > 3e-05 M | > 30 µM | 1.43e-05 M | > 30 µM | 1.18e-05 M | 7.07e-06 M | –
6 | Cc1cc(OCCCc2c(C(=O)O)n3c4c(cccc24)-c2c(COc4ccccc4)nn(C)c2CN(C)CCC3)cc(C)c1Cl (single isomer, unassigned) [Example 1-85, 1-[3-(4-chloro-3,5-dimethylphenoxy)propyl]-7,9-dimethyl-11-(phenoxymethyl)-4,5,6,7,8,9-hexahydropyrazolo[3′,4′:7,8][1,5]diazecino[9,10,1-hi]indole-2-carboxylic Acid] | – | 0.262 µM | – | – | – | – | – | – | – | > 3.3e-05 M | > 3.3e-05 M | > 33 µM | > 3.3e-05 M | > 33 µM | 2.5e-05 M | 1.03e-05 M | –
7 | Cc1nn(C)c2c1-c1cccc3c(CCCOc4cccc5ccccc45)c(C(=O)O)n(c13)CC=CCN2Cc1ccccc1 (racemic) [Example 001, (rac)-(E/Z)-8-benzyl-9,11-dimethyl-1-[3-(1-naphthyloxy)propyl]-4,7,8,9-tetrahydropyrazolo[4′,3′:4,5][1,6]diazecino[3,2,1-hi]indole-2-carboxylic Acid] | – | 1.01 µM | – | – | – | – | – | – | – | 2.61e-05 M | > 3.3e-05 M | 29.1 µM | > 3.3e-05 M | > 33 µM | > 3.3e-05 M | 9.57e-06 M | –
8 | CN1CCCn2c(C(=O)O)c(CCCOc3cccc4ccccc34)c3cccc(c32)-c2c(COc3ccc(-n4ccccc4=O)cc3)nn(C)c2C1 (single isomer, unassigned; enantiomer 1) [Example 1-115, 7,9-Dimethyl-1-[3-(1-naphthyloxy)propyl]-1-{[4-(2-oxopyridin-1(2H)-yl)phenoxy]methyl}-4,5,6,7,8,9-hexahydropyrazolo[3′,4′:7,8][1,5]diazecino[9,10,1-hi]indole-2-carboxylic Acid (Enantiomer 1)] | > 3.3e-05 M | 0.0479 µM | – | – | – | 2.13e-05 M | – | – | – | – | > 3.3e-05 M | 32.9 µM | > 3.3e-05 M | > 33 µM | – | 1.24e-05 M | –
9 | CN1CCCn2c(C(=O)O)c(CCCOc3cccc4ccccc34)c3cccc(c32)-c2c(COc3ccccc3)nn(C)c2C1 (racemic) [Example 1-81, (rac)-7,9-dimethyl-1-[3-(naphthalen-1-yloxy)propyl]-1-(phenoxymethyl)-4,5,6,7,8,9-hexahydropyrazolo[3′,4′:7,8][1,5]diazecino[9,10,1-hi]indole-2-carboxylic Acid] | – | 0.0994 µM | – | – | – | – | – | – | – | > 3.3e-05 M | > 3.3e-05 M | > 33 µM | > 3.3e-05 M | > 33 µM | > 3.3e-05 M | 2.78e-05 M | –
10 | CN(C)S(=O)(=O)N1CCN(c2ccc(OCc3nn(C)c4c3-c3cccc5c(CCCOc6cccc7ccccc67)c(C(=O)O)n(c35)CCCCOC4)cc2)CC1 (racemic) [Example 1-18, (rac)-3-({4-[4-(dimethylsulfamoyl)piperazin-1-yl]phenoxy}methyl)-1-methyl-7-[3-(naphthalen-1-yloxy)propyl]-1,10,11,12,13,15-hexahydropyrazolo[4′,3′:9,10][1,6]oxazacycloundecino[8,7,6-hi]indole-8-carboxylic Acid] | – | – | – | – | – | – | – | – | – | 1.75e-06 M | 2.29e-06 M | 1.94 µM | 1.57e-06 M | 1.22 µM | 9.33e-07 M | 1.33e-06 M | 8.79e-06 M
11 | Cc1cc(OCCCc2c(C(=O)O)n3c4c(cccc24)-c2c(COc4ccccc4)nn(C)c2CN(C)CCC3)cc(C)c1Cl (racemic) [Example 1-84, (rac)-1-[3-(4-chloro-3,5-dimethylphenoxy)propyl]-7,9-dimethyl-11-(phenoxymethyl)-4,5,6,7,8,9-hexahydropyrazolo[3′,4′:7,8][1,5]diazecino[9,10,1-hi]indole-2-carboxylic Acid] | – | 0.11 µM | – | – | – | – | – | – | – | > 3.3e-05 M | > 3.3e-05 M | > 33 µM | > 3.3e-05 M | > 33 µM | 1.18e-05 M | 8.37e-06 M | –
